Results taken from patent US20250353891A1 (MEDIMMUNE LIMITED, priority 2022, published 2025).
pEC50: −log10 of the molar value. One block for each compound: values may come before it. Starred links: 1 amine or outer side, 2 acyl side, 3 side chain; linkers in the order of their positions; H or OH if unused. Non-standard residues stand in square brackets, D forms with d. Residues, ends and D or L forms follow the SMILES beside them. Groups on a side chain read outwards from the residue. *: point of attachment. C20 diacid = O=C(O)CCCCCCCCCCCCCCCCCCC(=O)*; C18 diacid = O=C(O)CCCCCCCCCCCCCCCCC(=O)*; γGlu = O=C(O)[C@H](CCC(=O)[*:2])N[*:1]; αMeF = C[C@](N)(Cc1ccccc1)C(=O)O; AEEA = NCCOCCOCC(=O)O; Aib = CC(C)(N)C(=O)O

How the values were obtained:
[1] = biological target: human glucagon receptor (hGCGR) (Homo sapiens, UniProt P47871); experiment: cAMP production (HTRF) in CHO cells expressing hGCGR; format: cell-based; set-up: expressed in transfected cells; conditions: Table 7, peptides modified at position 20; cAMP in CHO hGCGR cells; geometric mean; read-out: hGluc-R EC50
Summary of the method: (§1)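 Potency values represent EC50 from 4-parameter logistic curves of HTRF % Delta F signal. Receptor-expressing CHO cells (hGCGR 2×10^5 cells/mL, hGLP-1R 1×10^5 cells/mL) were exposed for 30 min at room temperature before two-step cAMP detection.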

[2] = biological target: human GLP-1 receptor (hGLP-1R) (Homo sapiens, UniProt P43220); experiment: cAMP production (HTRF) in CHO cells expressing hGLP-1R; format: cell-based; set-up: expressed in transfected cells; conditions: for pEC50: Table 7, peptides modified at position 20, cAMP in CHO hGLP-1R cells, geometric mean, read-out: hGLP-1R EC50; for % Relative Potency Ratio: Table 7, % GLP-1R activity relative to GLP-1 / % GlucR activity relative to glucagon
Summary of the method: as §1

Chain of human glucagon receptor (hGCGR) (P47871 26-477): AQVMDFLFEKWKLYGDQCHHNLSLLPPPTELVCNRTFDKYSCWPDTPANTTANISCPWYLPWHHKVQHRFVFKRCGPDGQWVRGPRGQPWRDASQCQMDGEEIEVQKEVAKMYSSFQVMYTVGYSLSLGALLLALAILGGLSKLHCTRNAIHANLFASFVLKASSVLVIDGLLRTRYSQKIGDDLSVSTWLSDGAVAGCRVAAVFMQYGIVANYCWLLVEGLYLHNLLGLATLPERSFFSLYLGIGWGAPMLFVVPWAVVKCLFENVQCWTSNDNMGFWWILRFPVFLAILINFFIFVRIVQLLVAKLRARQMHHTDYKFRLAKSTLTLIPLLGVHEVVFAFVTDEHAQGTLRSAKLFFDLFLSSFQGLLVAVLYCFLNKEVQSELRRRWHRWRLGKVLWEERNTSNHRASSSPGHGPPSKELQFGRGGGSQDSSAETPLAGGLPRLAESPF
Chain of human GLP-1 receptor (hGLP-1R) (P43220 24-463): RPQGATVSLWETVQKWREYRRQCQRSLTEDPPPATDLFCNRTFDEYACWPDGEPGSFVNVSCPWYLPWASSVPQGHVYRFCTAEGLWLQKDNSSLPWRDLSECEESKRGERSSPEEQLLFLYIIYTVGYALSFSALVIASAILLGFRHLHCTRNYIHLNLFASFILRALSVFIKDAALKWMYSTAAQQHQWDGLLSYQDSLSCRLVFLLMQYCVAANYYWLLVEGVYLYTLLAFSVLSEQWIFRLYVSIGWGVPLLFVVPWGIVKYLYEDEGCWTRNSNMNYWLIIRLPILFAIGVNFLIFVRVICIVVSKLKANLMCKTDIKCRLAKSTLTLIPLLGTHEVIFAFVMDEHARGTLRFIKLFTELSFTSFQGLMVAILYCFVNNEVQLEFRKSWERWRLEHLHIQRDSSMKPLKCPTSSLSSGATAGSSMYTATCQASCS

Structure (SMILES): CC[C@H](C)[C@H](NC(=O)[C@H](Cc1c[nH]c2ccccc12)NC(=O)[C@H](CCC(N)=O)NC(=O)[C@@H](NC(=O)[C@H](Cc1ccccc1)NC(=O)[C@H](CC(=O)O)NC(=O)[C@H](CCCCNC(=O)COCCOCCNC(=O)COCCOCCNC(=O)CC[C@H](NC(=O)CC[C@H](NC(=O)CCCCCCCCCCCCCCCCCCC(=O)O)C(=O)O)C(=O)O)NC(=O)[C@H](C)NC(=O)[C@H](C)NC(=O)[C@H](CCCNC(=N)N)NC(=O)[C@H](CO)NC(=O)[C@H](CC(=O)O)NC(=O)[C@H](CC(C)C)NC(=O)[C@](C)(Cc1ccccc1)NC(=O)[C@H](CCCCN)NC(=O)[C@H](CO)NC(=O)[C@@H](NC(=O)[C@H](CC(=O)O)NC(=O)[C@H](CO)NC(=O)[C@@H](NC(=O)[C@](C)(Cc1ccccc1)NC(=O)[C@H](CO)NC(=O)CNC(=O)[C@H](Cc1c[nH]cn1)NC(=O)C(C)(C)NC(=O)[C@@H](N)Cc1c[nH]cn1)[C@@H](C)O)C(C)C)C(C)C)C(=O)N[C@@H](C)C(=O)N[C@@H](CC(N)=O)C(=O)N[C@H](C(N)=O)[C@@H](C)O [Peptide 211] (H-H[Aib]HGS[αMeF]TSDVSK[αMeF]LDSRAAK([AEEA-AEEA-γGlu-γGlu-C20 diacid])DFVQWIANT-NH2)
- pEC50 [1]: 10.22
- pEC50 [2]: 9.78
- % Relative Potency Ratio [2]: 0.7

Structure (SMILES): CC[C@H](C)[C@H](NC(=O)[C@H](Cc1c[nH]c2ccccc12)NC(=O)[C@H](CCC(N)=O)NC(=O)[C@@H](NC(=O)[C@H](Cc1ccccc1)NC(=O)[C@H](CC(=O)O)NC(=O)[C@H](CCCCNC(=O)COCCOCCNC(=O)COCCOCCNC(=O)CC[C@H](NC(=O)CCCCCCCCCCCCCCCCCCC(=O)O)C(=O)O)NC(=O)[C@H](C)NC(=O)[C@H](C)NC(=O)[C@H](CCCNC(=N)N)NC(=O)[C@H](CO)NC(=O)[C@H](CC(=O)O)NC(=O)[C@H](CC(C)C)NC(=O)[C@](C)(Cc1ccccc1)NC(=O)[C@H](CCCCN)NC(=O)[C@H](CO)NC(=O)[C@@H](NC(=O)[C@H](CC(=O)O)NC(=O)[C@H](CO)NC(=O)[C@@H](NC(=O)[C@](C)(Cc1ccccc1)NC(=O)[C@H](CO)NC(=O)CNC(=O)[C@H](Cc1c[nH]cn1)NC(=O)C(C)(C)NC(=O)[C@@H](N)Cc1c[nH]cn1)[C@@H](C)O)C(C)C)C(C)C)C(=O)N[C@@H](C)C(=O)N[C@@H](CC(N)=O)C(=O)N[C@H](C(N)=O)[C@@H](C)O [Peptide 214] (H-H[Aib]HGS[αMeF]TSDVSK[αMeF]LDSRAAK([AEEA-AEEA-γGlu-C20 diacid])DFVQWIANT-NH2)
- pEC50 [1]: 9.09
- pEC50 [2]: 8.63
- % Relative Potency Ratio [2]: 0.7

Structure (SMILES): CC[C@H](C)[C@H](NC(=O)[C@H](Cc1c[nH]c2ccccc12)NC(=O)[C@H](CCC(N)=O)NC(=O)[C@@H](NC(=O)[C@](C)(Cc1ccccc1)NC(=O)[C@H](CC(=O)O)NC(=O)[C@H](CCCCNC(=O)COCCOCCNC(=O)COCCOCCNC(=O)CC[C@H](NC(=O)CCCCCCCCCCCCCCCCCCC(=O)O)C(=O)O)NC(=O)[C@H](C)NC(=O)[C@H](C)NC(=O)[C@H](CCCNC(=N)N)NC(=O)[C@H](CO)NC(=O)[C@H](CC(=O)O)NC(=O)[C@H](CC(C)C)NC(=O)[C@](C)(Cc1ccccc1)NC(=O)[C@H](CCCCN)NC(=O)[C@H](CO)NC(=O)[C@@H](NC(=O)[C@H](CC(=O)O)NC(=O)[C@H](CO)NC(=O)[C@@H](NC(=O)[C@](C)(Cc1ccccc1)NC(=O)[C@H](CO)NC(=O)CNC(=O)[C@H](Cc1c[nH]cn1)NC(=O)C(C)(C)NC(=O)[C@@H](N)Cc1c[nH]cn1)[C@@H](C)O)C(C)C)C(C)C)C(=O)N[C@@H](C)C(=O)N[C@@H](CC(N)=O)C(=O)N[C@H](C(N)=O)[C@@H](C)O [Peptide 215] (H-H[Aib]HGS[αMeF]TSDVSK[αMeF]LDSRAAK([AEEA-AEEA-γGlu-C20 diacid])D[αMeF]VQWIANT-NH2; N-terminus assumed)
- pEC50 [1]: 8.58
- pEC50 [2]: 8.12
- % Relative Potency Ratio [2]: 0.7

Structure (SMILES): CC[C@H](C)[C@H](NC(=O)[C@H](Cc1c[nH]c2ccccc12)NC(=O)[C@H](CCC(=O)O)NC(=O)[C@@H](NC(=O)[C@](C)(Cc1ccccc1)NC(=O)[C@H](CC(=O)O)NC(=O)[C@H](CCCCNC(=O)COCCOCCNC(=O)COCCOCCNC(=O)CC[C@H](NC(=O)CCCCCCCCCCCCCCCCCCC(=O)O)C(=O)O)NC(=O)[C@H](C)NC(=O)[C@H](C)NC(=O)[C@H](CCCNC(=N)N)NC(=O)[C@H](CO)NC(=O)[C@H](CC(=O)O)NC(=O)[C@H](CC(C)C)NC(=O)[C@](C)(Cc1ccccc1)NC(=O)[C@H](CCCCN)NC(=O)[C@H](CO)NC(=O)[C@@H](NC(=O)[C@H](CC(=O)O)NC(=O)[C@H](CO)NC(=O)[C@@H](NC(=O)[C@](C)(Cc1ccccc1)NC(=O)[C@H](CO)NC(=O)CNC(=O)[C@H](Cc1c[nH]cn1)NC(=O)C(C)(C)NC(=O)[C@@H](N)Cc1c[nH]cn1)[C@@H](C)O)C(C)C)C(C)C)C(=O)N[C@@H](C)C(=O)N[C@@H](CC(N)=O)C(=O)N[C@H](C(N)=O)[C@@H](C)O [Peptide 216] (H-H[Aib]HGS[αMeF]TSDVSK[αMeF]LDSRAAK([AEEA-AEEA-γGlu-C20 diacid])D[αMeF]VEWIANT-NH2)
- pEC50 [1]: 8.25
- pEC50 [2]: 7.74
- % Relative Potency Ratio [2]: 0.6

Further compounds by rising pEC50 [1], results first:

- pEC50 [1]: 9.85
- pEC50 [2]: 9.27
- % Relative Potency Ratio [2]: 0.5
Structure (SMILES): CC[C@H](C)[C@H](NC(=O)[C@H](Cc1c[nH]c2ccccc12)NC(=O)[C@H](CCC(=O)O)NC(=O)[C@@H](NC(=O)[C@H](Cc1ccccc1)NC(=O)[C@H](CC(=O)O)NC(=O)[C@H](CCCCNC(=O)COCCOCCNC(=O)COCCOCCNC(=O)CC[C@H](NC(=O)CC[C@H](NC(=O)CCCCCCCCCCCCCCCCCCC(=O)O)C(=O)O)C(=O)O)NC(=O)[C@H](C)NC(=O)[C@H](C)NC(=O)[C@H](CCCNC(=N)N)NC(=O)[C@H](CO)NC(=O)[C@H](CC(=O)O)NC(=O)[C@H](CC(C)C)NC(=O)[C@](C)(Cc1ccccc1)NC(=O)[C@H](CCCCN)NC(=O)[C@H](CO)NC(=O)[C@@H](NC(=O)[C@H](CC(=O)O)NC(=O)[C@H](CO)NC(=O)[C@@H](NC(=O)[C@](C)(Cc1ccccc1)NC(=O)[C@H](CO)NC(=O)CNC(=O)[C@H](Cc1c[nH]cn1)NC(=O)C(C)(C)NC(=O)[C@@H](N)Cc1c[nH]cn1)[C@@H](C)O)C(C)C)C(C)C)C(=O)N[C@@H](C)C(=O)N[C@@H](CC(N)=O)C(=O)N[C@H](C(N)=O)[C@@H](C)O [Peptide 213] (H-H[Aib]HGS[αMeF]TSDVSK[αMeF]LDSRAAK([AEEA-AEEA-γGlu-γGlu-C20 diacid])DFVEWIANT-NH2; N-terminus assumed)

- pEC50 [1]: 10.01
- pEC50 [2]: 9.27
- % Relative Potency Ratio [2]: 0.4
Structure (SMILES): CC[C@H](C)[C@H](NC(=O)[C@H](Cc1c[nH]c2ccccc12)NC(=O)[C@H](CCC(=O)O)NC(=O)[C@@H](NC(=O)[C@H](Cc1ccccc1)NC(=O)[C@H](CC(=O)O)NC(=O)[C@H](CCCCNC(=O)COCCOCCNC(=O)COCCOCCNC(=O)CC[C@H](NC(=O)CCCCCCCCCCCCCCCCCCC(=O)O)C(=O)O)NC(=O)[C@H](C)NC(=O)[C@H](C)NC(=O)[C@H](CCCNC(=N)N)NC(=O)[C@H](CO)NC(=O)[C@H](CC(=O)O)NC(=O)[C@H](CC(C)C)NC(=O)[C@](C)(Cc1ccccc1)NC(=O)[C@H](CCCCN)NC(=O)[C@H](CO)NC(=O)[C@@H](NC(=O)[C@H](CC(=O)O)NC(=O)[C@H](CO)NC(=O)[C@@H](NC(=O)[C@](C)(Cc1ccccc1)NC(=O)[C@H](CO)NC(=O)CNC(=O)[C@H](Cc1c[nH]cn1)NC(=O)C(C)(C)NC(=O)[C@@H](N)Cc1c[nH]cn1)[C@@H](C)O)C(C)C)C(C)C)C(=O)N[C@@H](C)C(=O)N[C@@H](CC(N)=O)C(=O)N[C@H](C(N)=O)[C@@H](C)O [Peptide 212] (H-H[Aib]HGS[αMeF]TSDVSK[αMeF]LDSRAAK([AEEA-AEEA-γGlu-C20 diacid])DFVEWIANT-NH2)

- pEC50 [1]: 10.03
- pEC50 [2]: 9.81
- % Relative Potency Ratio [2]: 1.2
Structure (SMILES): CC[C@H](C)[C@H](NC(=O)[C@H](Cc1c[nH]c2ccccc12)NC(=O)[C@H](CCC(=O)O)NC(=O)[C@@H](NC(=O)[C@H](Cc1ccccc1)NC(=O)[C@H](CC(=O)O)NC(=O)[C@H](CCCCNC(=O)COCCOCCNC(=O)COCCOCCNC(=O)CC[C@H](NC(=O)CC[C@H](NC(=O)CCCCCCCCCCCCCCCCC(=O)O)C(=O)O)C(=O)O)NC(=O)[C@H](C)NC(=O)[C@H](C)NC(=O)[C@H](CCC(N)=O)NC(=O)[C@H](CO)NC(=O)[C@H](CC(=O)O)NC(=O)[C@H](CC(C)C)NC(=O)[C@](C)(Cc1ccccc1)NC(=O)[C@H](CCCCN)NC(=O)[C@H](CO)NC(=O)[C@@H](NC(=O)[C@H](CC(=O)O)NC(=O)[C@H](CO)NC(=O)[C@@H](NC(=O)[C@](C)(Cc1ccccc1)NC(=O)[C@H](CO)NC(=O)CNC(=O)[C@H](Cc1c[nH]cn1)NC(=O)C(C)(C)NC(=O)[C@@H](N)Cc1c[nH]cn1)[C@@H](C)O)C(C)C)C(C)C)C(=O)N[C@@H](C)C(=O)N[C@@H](CC(N)=O)C(=O)N[C@H](C(N)=O)[C@@H](C)O [Peptide 210] (H-H[Aib]HGS[αMeF]TSDVSK[αMeF]LDSQAAK([AEEA-AEEA-γGlu-γGlu-C18 diacid])DFVEWIANT-NH2)
